Like-named read-outs stand apart in the source and are kept apart here. Values belong to the compound of their own block, whether it stands above or below them.
What was measured:
Aqueous solubility = format: physicochemical; settings: aqueous medium (not further specified)
MDCK-MDR1 cells = settings: cited from earlier work
[1] = rat liver microsomes; cited from earlier work
[2] = Rat plasma protein binding; format: in vitro ADME
[3] = Metabolic stability in rat liver microsomes; format: in vitro ADME
[4] = tested on: panel of ~50 GPCRs (PDSP); settings: 10 μM; any of the receptors of the panel
[5] = In vivo pharmacokinetics in Sprague-Dawley rats; settings: male, rat, ip, 10 mg/kg
Sprague-Dawley rats = assay: Locomotor activity; format: in vivo, rat; settings: 10 mg/kg i.p., 30 min, p > 0.05

solubility (Aqueous solubility): < 0.5 µM
fraction unbound [2]: 0.001
Structure (SMILES): O=C(Nc1ccc(Cl)cc1)Nc1cccc(-c2cccc(N3CCCC3)n2)c1 [Compound 2, 1-(4-chlorophenyl)-3-{3-[6-(pyrrolidin-1-yl)pyridin-2-yl]phenyl}urea]
Efflux BA/AB (MDCK-MDR1 cells): 0.8
Papp (A-to-B) (MDCK-MDR1 cells): 2.6 ± 0 x10^−6 cm/s
Papp (B-to-A) (MDCK-MDR1 cells): 2.2 ± 0.1 x10^−6 cm/s
%Qh (percentage of hepatic blood flow) [1]: 72.6%

%Qh (percentage of hepatic blood flow) [3]: 72.2%
Structure (SMILES): Cc1cccc(CCNC(=O)Nc2ccc(Cl)cc2)c1 [Compound 17, 3-(4-Chlorophenyl)-1-[2-(3-methylphenyl)ethyl]urea]

inhibition at PDSP panel receptors [4]: < 50 % inhibition
CL/F ([5]; brain): 121 mL/min/kg
half-life ([5]; brain): 54 min
half-life ([5]; plasma): 37.8 min
locomotion (Sprague-Dawley rats): did not significantly affect locomotion
Structure (SMILES): O=C(NCCc1cccc(Cl)c1)Nc1ccc(Cl)cc1 [Compound 31, 3-(4-Chlorophenyl)-1-[2-(3-chlorophenyl)ethyl]urea]

%Qh (percentage of hepatic blood flow) [3]: 69.8%
Structure (SMILES): O=C(NCCc1cccc(C(F)(F)F)c1)Nc1ccc(Cl)cc1 [Compound 34, 3-(4-Chlorophenyl)-1-{2-[3-(trifluoromethyl)phenyl]ethyl}urea]

Reference: paper PMC8969894 (Journal of medicinal chemistry, 2021)
